Reference: patent US7635493B2, “Herbal composition for Tinea infection” (Piramal Life Sciences Limited, priority 2005, dated 2009)
In brackets after ≈: the same amount, converted by molar mass.

How the values were obtained:
Microsporum gypseum = experiment: In vitro anti-dermatophytic activity, agar dilution MIC; format: cell-based; settings: Nannizzia gypsea; M. gypseum; Sabarouds agar, 28° C./48 h
Experimental: (§1) In vitro Assay Procedure.
(§2) Organisms: Trichophyton mentagrophytes & Microsporum gypseum.
(§3) Cultures were grown on PDA agar slants at 28° C. for 7 days. The growth was covered with sterile saline & scraped to get a growth suspension. The resulting mixture of conidia or sporangiospores & hypal fragments was transferred to a sterile test tube. The heavy particles were allowed to settle & upper homogenous suspension was transferred to another tube. These suspensions were adjusted to an optical density that ranged from 0.09 to 0.11 (80 to 82% transmittance) using a spectrophotometer. These stock suspensions were further diluted 1:10 with saline to obtain test inoculum (1×103 to 5×10^3 cfu/ml).
(§4) Ointment & Cream: A 100 mg/ml stock solution of ointment & cream of example 4 and 5 was prepared in demineralised water+0.01% Tween 20. Calculated amount of stock solution was added to 20 ml of Sabarouds melted agar medium & poured into petri plates so as to get a series of serial two fold dilution of the extract in the medium. Five concentrations of 100, 50, 25, 10 & 5 mg/ml were used for both formulations in initial study. A repeated study was carried out using lower concentrations of both the formulations. The concentrations used were 5, 1, 0.9, 0.8, 0.7, 0.6, 0.5, 0.4 0.3, 0.2 & 0.1 mg/ml.
(§5) Extract of Example 1 and Ethyl p-methoxycinnamate: […]

[1] = test system: Trichophyton mentagrophytes; experiment: as above; format: cell-based; settings: T. mentagrophytes, Sabarouds agar, 28° C./48 h
Experimental: as §1, §2, §3, §4, §5

L929 cells = experiment: Cytotoxicity in L929 cell lines; format: cell-based; set-up: Cytotoxicity in L929 cell lines: unit not given here
TNF-α = TNF-α production by LPS in human peripheral blood mononuclear cells (hPBMC), ELISA; format: cell-based
Experimental: Assay for Screening in Human Peripheral Blood Mononuclear Cells (hPBMCs). TNF-α production by Lipopolysaccharide (LPS) in hPBMC was measured according to the method described by Jansky, L. et al (Physiol. Res. 52, 593-598, (2003)). Blood was collected from healthy donors into vacutainer tubes coated with potassium EDTA (Vacutest Plast) and diluted 1:2 with Dulbecco's Phosphate Buffered Saline (DPBS) (Sigma Aldrich, St. Louis, Mo.). The PBMC were harvested from human blood and suspended in RPMI 1640 culture medium (Gibco BRL, Pasley, UK) containing 10% fetal bovine serum (FBS) (Hyclone, Utah, USA), 100 U/ml penicillin (Sigma Chemical Co. St Louis, Mo.) and 100 μg/ml streptomycin (Sigma Chemical Co. St Louis, Mo.). The cell concentration was adjusted to 1×10^6 cells/ml. The cell suspension (100 μl) was added to the wells of a 96-well culture plate. Following cell plating, 79 μl of the culture medium and 1 μl of eight different concentrations of the test samples (10 to 100 μg/ml) dissolved in dimethylsulfoxide (DMSO, Sigma, Mo., USA) were added to the cells. The final concentration of DMSO was adjusted to 0.5-1%. Rolipram (100 μM) was used as a standard compound. The plates were incubated for 30 min at 37° C. in an atmosphere of 5% CO2. Finally, 20 μl (10 μg/ml) per well of LPS, (Escherchia coli 0127:B8, Sigma Chemical Co., St. Louis, Mo.) was added, to obtain a final concentration of 2 μg/ml. The plates were incubated at 37° C. for 5 h in an atmosphere of 5% CO2. Supernatants were harvested and assayed for % TNF-α inhibition by ELISA as described by the manufacturer (R&D Systems, MN) or by cytotoxicity bioassay in L929 cells.

dermatophytes = settings: Lloydia, 39(4), 218-222, (1976); cited from earlier work

CCOC(=O)C=Cc1ccc(OC)cc1 [Ethyl p-methoxycinnamate]
MIC (Microsporum gypseum): 30 µg/mL (≈ 145 µM) | MIC [1]: 30 µg/mL (≈ 145 µM) | Cytotoxicity in L929 cell lines (L929 cells; 10 μg/ml, 3.5 h): 20 | Cytotoxicity in L929 cell lines (L929 cells; 10 μg/ml, 24 h): 27 | Cytotoxicity in L929 cell lines (L929 cells; 100 μg/ml, 3.5 h): 12 | Cytotoxicity in L929 cell lines (L929 cells; 100 μg/ml, 24 h): 02 | Cytotoxicity (conclusion in words) (L929 cells; as measured in L929 cell lines): low cytotoxicity | inhibition at 10 µg/mL (TNF-α; PBMC, sample concentration 10 μg/ml, LPS-stimulated human cells, 5 h): 0% | inhibition at 100 µg/mL (TNF-α; PBMC, sample concentration 100 μg/ml, LPS-stimulated human cells, 5 h): 80% | TNF alpha activity inhibition (conclusion in words) (TNF-α; conclusion from table 1): inhibit TNF alpha activity | Anti-dermatophytic activity (reported) (dermatophytes): reported to be anti-dermatophytic
